The NIST ThermoML archive (doi:10.1021/je800637t)

Tests used:
[1] = mn = molality of the nth substance listed, in mol/kg; settings: 100.8 kPa, Liquid; for viscosity: Cone and plate viscometry; for electrical conductivity: Kyoto model CM-117 conductivity meter; for mass density: Vibrating tube method
[2] = refractive index (Na D-line) (dimensionless); mn = molality of the nth substance listed, in mol/kg; settings: 100.8 kPa, Liquid, Standard Abbe refractometry

O=[N+]([O-])[O-].[K+] [potassium nitrate] + O
Settings	electrical conductivity, [1] [S/m]	mass density, [1] [kg/m3]	refractive index, [2]	viscosity, [1] [mPa·s]
298.15 K, m1 = 0.3799	0.000381	1020.03	1.33593	0.879
298.15 K, m1 = 0.76	0.000705	1041.91	1.33907	0.87
298.15 K, m1 = 1.14	0.000985	1062.91	1.34205	0.869
298.15 K, m1 = 1.52	0.00122	1083.04	1.34488	0.872
298.15 K, m1 = 1.9	0.00144	1102.4	1.34751	0.881
298.15 K, m1 = 2.28	0.00162	1121.03	1.35009	0.889
298.15 K, m1 = 2.66	0.00179	1139.02	1.35253	0.901
298.15 K, m1 = 3.04	0.00194	1156.32	1.35479	0.914
298.15 K, m1 = 3.42	0.00211	1173.06	1.35704	0.931
298.15 K, m1 = 3.821	0.00223	1189.24	1.35915	0.95
313.15 K, m1 = 0.3799	0.000528	1014.52	1.33384	0.652
313.15 K, m1 = 0.76	0.000954	1035.85	1.33687	0.654
313.15 K, m1 = 1.14	0.00129	1056.36	1.33975	0.657
313.15 K, m1 = 1.52	0.00159	1076.08	1.34248	0.665
313.15 K, m1 = 1.9	0.00184	1095.07	1.345	0.673
313.15 K, m1 = 2.28	0.00208	1113.37	1.34761	0.682
313.15 K, m1 = 2.66	0.00227	1131.04	1.34991	0.693
313.15 K, m1 = 3.04	0.00248	1148.05	1.35227	0.703
313.15 K, m1 = 3.42	0.00263	1164.53	1.35443	0.716
313.15 K, m1 = 3.8	0.00278	1180.49	1.35643	0.733
313.15 K, m1 = 4.581	0.00308	1211.11	1.36051	0.76
313.15 K, m1 = 5.341	0.0033	1239.46	1.36426	0.803
313.15 K, m1 = 6.273	0.00357	1271.3	1.36812	0.844
